Blank lines part the entries; values can stand above or below the molecule they belong to.
Experiments:
Mus musculus [1] = assay: Analgesic activity in mouse assessed as inhibition of acetic acid-induced writhing response at 10 mg/kg, po administered 0.5 to 1 hr before acetic acid challenge; assay type: functional
[2] = biological target: 5-hydroxytryptamine receptor 2A (Rattus norvegicus, UniProt P14842); assay: Displacement of [3H]-ketanserin from 5HT2A receptor in rat cortical membrane; assay type: cell membranes
[3] = biological target: T1, 5-hydroxytryptamine receptor 1A (Rattus norvegicus, UniProt P19327); assay: Displacement of [3H]-8-OH-DPAT from 5HT1A receptor in rat hippocampus; assay type: tissue-based
T1 sequence (P19327 whole entry): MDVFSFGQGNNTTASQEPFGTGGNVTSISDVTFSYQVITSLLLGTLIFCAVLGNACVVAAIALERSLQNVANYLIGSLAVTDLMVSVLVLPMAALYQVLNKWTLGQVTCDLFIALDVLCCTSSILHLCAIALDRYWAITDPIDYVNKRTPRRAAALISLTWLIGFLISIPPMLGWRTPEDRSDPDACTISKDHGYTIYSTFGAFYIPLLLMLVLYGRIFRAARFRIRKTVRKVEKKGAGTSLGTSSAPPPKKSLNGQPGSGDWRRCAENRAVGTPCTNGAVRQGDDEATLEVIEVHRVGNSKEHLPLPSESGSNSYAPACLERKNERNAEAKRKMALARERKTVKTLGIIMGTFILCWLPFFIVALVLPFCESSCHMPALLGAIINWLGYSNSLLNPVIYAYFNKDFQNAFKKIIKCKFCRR

Mus musculus [4] = assay: Analgesic activity in ip dosed mouse assessed as inhibition of acetic acid-induced writhing response administered 0.5 to 1 hr before acetic acid challenge; assay type: functional
Mus musculus [5] = assay: Neurotoxicity in mouse at 60 mg/kg, ip by rotarod test; assay type: toxicity, organism-based; set-up: dose 60 mg/kg, route intraperitoneal; details: in vivo
[6] = biological target: 5-hydroxytryptamine receptor 2A (Rattus norvegicus) (UniProt P14842); assay: Displacement of [3H]-ketanserin from 5HT2A receptor in rat cortical membrane at 1 uM; assay type: cell membranes
[7] = biological target: T2, 5-hydroxytryptamine receptor 1A (Rattus norvegicus) (UniProt P19327); assay: Displacement of [3H]-8-OH-DPAT from 5HT1A receptor in rat hippocampus at 1 uM; assay type: tissue-based
T2 sequence (whole entry): T1 sequence (P19327 whole entry)

Mus musculus [8] = assay: Analgesic activity in mouse assessed as inhibition of acetic acid-induced writhing response at 10 mg/kg, ip administered 0.5 to 1 hr before acetic acid challenge; assay type: functional; details: route intraperitoneal
[9] = Half life in human liver microsomes by LC/MS/MS; assay type: ADME, Microsome
[10] = Neurotoxicity in po dosed mouse by rotarod test; assay type: toxicity, organism-based; details: in vivo
Mus musculus [11] = assay: Neurotoxicity in mouse at 20 mg/kg, ip by rotarod test; assay type: toxicity, organism-based; set-up: dose 20 mg/kg, route intraperitoneal; details: in vivo
Mus musculus [12] = assay: Neurotoxicity in mouse at 50 mg/kg, ip by rotarod test; assay type: toxicity, organism-based; set-up: dose 50 mg/kg, route intraperitoneal; details: in vivo

Sequence of 5-hydroxytryptamine receptor 2A (P14842 whole entry): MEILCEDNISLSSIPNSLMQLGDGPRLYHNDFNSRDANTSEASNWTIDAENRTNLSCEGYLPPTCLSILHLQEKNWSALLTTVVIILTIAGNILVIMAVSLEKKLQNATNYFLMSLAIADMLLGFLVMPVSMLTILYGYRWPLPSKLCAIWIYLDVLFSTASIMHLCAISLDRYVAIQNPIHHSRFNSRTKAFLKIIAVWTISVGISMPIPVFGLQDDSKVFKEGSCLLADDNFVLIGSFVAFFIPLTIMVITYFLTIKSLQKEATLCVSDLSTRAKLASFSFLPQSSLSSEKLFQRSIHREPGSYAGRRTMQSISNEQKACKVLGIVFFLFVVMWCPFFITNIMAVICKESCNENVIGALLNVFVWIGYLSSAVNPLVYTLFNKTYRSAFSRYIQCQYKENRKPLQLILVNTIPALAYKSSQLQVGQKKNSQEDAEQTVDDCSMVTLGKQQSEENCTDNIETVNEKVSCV
Sequence of 5-hydroxytryptamine receptor 2A (Rattus norvegicus) (P14842 whole entry): as above

SMILES: Cc1ccc(N2CCN(CCC(OC(N)=O)c3ccccc3)CC2)c(C)c1 (single isomer, unassigned)
- inhibition in vivo at 10 mg/kg (Mus musculus [1]): 34%

- IC50 [2]: 2110 nM
- IC50 [3]: 7220 nM
SMILES: NC(=O)OC(CCN1CCN(c2ccc(C(F)(F)F)cc2)CC1)c1ccccc1 (single isomer, unassigned)

SMILES: NC(=O)OC(CCN1CCN(c2cccc(Cl)c2)CC1)c1ccccc1 (stereo not drawn)
- ED50 (Mus musculus [4]): 0.57 mg/kg
- Activity (Mus musculus [5]): Toxic

SMILES: NC(=O)OC(CCN1CCN(c2ccccc2)CC1)c1cccc([N+](=O)[O-])c1 (single isomer, unassigned)
- inhibition [6]: 86.4%
- inhibition in vivo at 10 mg/kg (Mus musculus [1]): 48%
- inhibition [7]: 74.6%
- inhibition in vivo at 10 mg/kg (Mus musculus [8]): 100%

SMILES: NC(=O)OC(CCN1CCN(c2ccc(OC(F)(F)F)cc2)CC1)c1ccccc1 (single isomer, unassigned)
- inhibition in vivo at 10 mg/kg (Mus musculus [1]): 18%

SMILES: Cc1cccc(C)c1N1CCN(CCC(OC(N)=O)c2ccccc2)CC1 (single isomer, unassigned)
- inhibition in vivo at 10 mg/kg (Mus musculus [1]): 48%

SMILES: NC(=O)OC(CCN1CCN(c2ccccc2O)CC1)c1ccccc1 (single isomer, unassigned)
- inhibition in vivo at 10 mg/kg (Mus musculus [1]): 37%

SMILES: COc1ccc(N2CCN(CCC(OC(N)=O)c3ccccc3)CC2)cc1 (racemic)
- inhibition in vivo at 10 mg/kg (Mus musculus [1]): 72%
- half-life [9]: 2.07 h
- IC50 [3]: 1980 nM
- TD50 [10]: 122 mg/kg
- ED50 (Mus musculus [4]): 0.14 mg/kg

SMILES: O=C(CCN1CCN(c2ccccc2)CC1)c1ccccc1
- IC50 [2]: 1070 nM
- IC50 [3]: 47.5 nM
- inhibition in vivo at 10 mg/kg (Mus musculus [8]): 37.2%

SMILES: NC(=O)OC(CCN1CCN(c2ccc([N+](=O)[O-])cc2)CC1)c1ccc(F)cc1 (single isomer, unassigned)
- inhibition [6]: 29.6%
- inhibition in vivo at 10 mg/kg (Mus musculus [1]): 70%
- TD50 [10]: 97.8 mg/kg
- inhibition [7]: 29.6%

SMILES: Cc1ccc(C(CCN2CCN(c3ccccc3)CC2)OC(N)=O)cc1 (single isomer, unassigned)
- inhibition [6]: 85.6%
- inhibition [7]: 59.6%
- inhibition in vivo at 10 mg/kg (Mus musculus [8]): 100%

SMILES: COc1ccc(N2CCN(CCC(OC(N)=O)c3ccc(C)c(C)c3)CC2)cc1 (single isomer, unassigned)
- inhibition in vivo at 10 mg/kg (Mus musculus [1]): 58%

SMILES: CC(C)(C)c1ccc(C(CCN2CCN(c3ccccc3)CC2)OC(N)=O)cc1 (single isomer, unassigned)
- inhibition [6]: 98.8%
- inhibition in vivo at 10 mg/kg (Mus musculus [1]): 62%
- inhibition [7]: 44.4%

- IC50 [2]: 92.5 nM
- IC50 [3]: 59.6 nM
SMILES: Cc1cccc(N2CCN(CCC(OC(N)=O)c3ccccc3)CC2)c1 (single isomer, unassigned)

SMILES: NC(=O)OC(CCN1CCN(c2ccc(F)cc2)CC1)c1ccccc1 (single isomer, unassigned)
- inhibition in vivo at 10 mg/kg (Mus musculus [1]): 88%
- IC50 [3]: 10500 nM
- ED50 (Mus musculus [4]): 0.55 mg/kg
- Activity (Mus musculus [11]): Toxic

SMILES: COc1cccc(N2CCN(CCC(OC(N)=O)c3ccccc3)CC2)c1 (single isomer, unassigned)
- inhibition in vivo at 10 mg/kg (Mus musculus [8]): 55%

SMILES: NC(=O)OC(CCN1CCN(c2ccc(C(F)(F)F)cc2[N+](=O)[O-])CC1)c1ccccc1 (single isomer, unassigned)
- inhibition in vivo at 10 mg/kg (Mus musculus [1]): 50%

SMILES: COc1ccc(C(CCN2CCN(c3ccc(OC)cc3)CC2)OC(N)=O)cc1 (stereo not drawn)
- inhibition in vivo at 10 mg/kg (Mus musculus [1]): 53%

SMILES: O[C@H](CCN1CCN(c2ccccc2)CC1)c1ccccc1
- IC50 [2]: 452 nM
- IC50 [3]: 174 nM
- inhibition in vivo at 10 mg/kg (Mus musculus [8]): 70.1%

SMILES: NC(=O)OC(CCN1CCN(c2ccc(F)cc2)CC1)c1ccc(F)cc1 (single isomer, unassigned)
- inhibition [6]: 93.9%
- inhibition in vivo at 10 mg/kg (Mus musculus [1]): 52%
- inhibition [7]: 60.9%

- IC50 [2]: 369 nM
- IC50 [3]: 1280 nM
SMILES: Cc1ccc(N2CCN(CCC(OC(N)=O)c3ccccc3)CC2)cc1 (single isomer, unassigned)

SMILES: NC(=O)O[C@@H](CCN1CCN(c2ccccc2)CC1)c1ccccc1
- IC50 [2]: 1020 nM
- IC50 [3]: 772 nM
- inhibition in vivo at 10 mg/kg (Mus musculus [8]): 87.8%

SMILES: COc1ccc(N2CCN(CCC(OC(N)=O)c3ccc(C)cc3C)CC2)cc1 (single isomer, unassigned)
- inhibition in vivo at 10 mg/kg (Mus musculus [1]): 62%

SMILES: NC(=O)OC(CCN1CCN(c2ccccc2)CC1)c1ccc([N+](=O)[O-])cc1 (single isomer, unassigned)
- inhibition [6]: 88%
- inhibition in vivo at 10 mg/kg (Mus musculus [1]): 91.2%
- Activity (Mus musculus [12]): Toxic
- TD50 [10]: 53.4 mg/kg
- inhibition [7]: 81.4%
- inhibition in vivo at 10 mg/kg (Mus musculus [8]): 100%

— ChEMBL document CHEMBL2157932, “Synthesis and pharmacological evaluation of carbamic acid 1-phenyl-3-(4-phenyl-piperazine-1-yl)-propyl ester derivatives as new analgesic agents” (Bioorg Med Chem Lett, 2012)
